Source: US20220348590A1, “CYCLOOXYGENASE-2 INHIBITORS AND USES THEREOF” (The Board Institute, Inc., priority 2019, published 2022)
In brackets after ≈: the same amount, converted by molar mass. Like-named read-outs stand apart in the source and are kept apart here.

Assays:
[1] = rat plasma protein binding (PPB) assay; type: in vitro ADME; conditions: average, read-out: Rat Plasma Protein Binding % Bound Avg (converted)
Method in brief: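 Non-specific binding is assessed by in vitro protein binding experiments that yield the free fraction. Species and matrix differ by assay: mouse brain for BPB, and mouse, rat and human plasma for PPB.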

[2] = human plasma protein binding (PPB) assay; type: in vitro ADME; conditions: average, read-out: Human Plasma Protein Binding % Bound Avg (converted)
Method: We have adapted a previously reported cyclooxygenase enzymatic assay utilizing LCMS quantification of PGE2 as the product of COX-1 and COX2 catalyzed conversion of arachidonic acid to evaluate the binding properties of newly synthesized ligands [Cao, 2011]. These optimized and miniaturized (384-well plates) LCMS-based COX-1 and COX2 enzymatic assays enabled us to quickly evaluate newly synthesized ligands for COX2 binding affinity and selectivity vs COX-1. Using a shorter ligand-enzyme incubation time in the LCMS assay (2 minutes vs 10 minutes) also permitted us to prioritize ligands with faster binding kinetics. Considering the relatively slow on-rate kinetics of known coxibs, due to their 3-step binding mechanism [Marnett, 2009], we believe that optimizing this critical parameter will be key to the successful development of a COX2 PET tracer. Using these enzymatic assays, we have evaluated>200 newly synthesized ligands against COX2 and >20 ligands against COX-1. Another critical property necessary for a good PET radiotracer is to have low non-specific binding (NSB) to increase the free fraction and maximize the signal to noise ratio. This property can be evaluated using in-vitro protein binding assays, and we have now evaluated>50 newly synthesized ligands in mouse, rat and human plasma protein binding (PPB) assays as well as >15 ligands in a mouse brain protein binding (BPB) assay.

PBS Solubility (no DMSO) = type: physicochemical; conditions: aqueous buffer, thermodynamic from solid, average
[3] = Human Plasma Protein Stability (% Remaining); type: in vitro ADME; conditions: average
[4] = Human Microsome Stability; type: in vitro ADME; conditions: human microsomes
[5] = target: T1, human recombinant COX2 (hCOX2) (UniProt P35354); experiment: LCMS-based COX2 enzymatic inhibition assay (PGE2 quantification); type: biochemical; parameters: COX2 2 minutes pge2/pge2d4 area ratio Avg; other: 2 minutes; readout pge2/pge2d4 area ratio; average; COX2 2 minutes pge2/pge2d4 area ratio Avg; LLE; average LLE; COX2 2 minutes pge2 area (counts) Avg; readout pge2 area (counts); other: 2 min; "ovine COX2 (oCOX2), human recombinant COX2 (hCOX2)"; conditions: 2 minutes; for IC50: average
T1 sequence (P35354 1-604): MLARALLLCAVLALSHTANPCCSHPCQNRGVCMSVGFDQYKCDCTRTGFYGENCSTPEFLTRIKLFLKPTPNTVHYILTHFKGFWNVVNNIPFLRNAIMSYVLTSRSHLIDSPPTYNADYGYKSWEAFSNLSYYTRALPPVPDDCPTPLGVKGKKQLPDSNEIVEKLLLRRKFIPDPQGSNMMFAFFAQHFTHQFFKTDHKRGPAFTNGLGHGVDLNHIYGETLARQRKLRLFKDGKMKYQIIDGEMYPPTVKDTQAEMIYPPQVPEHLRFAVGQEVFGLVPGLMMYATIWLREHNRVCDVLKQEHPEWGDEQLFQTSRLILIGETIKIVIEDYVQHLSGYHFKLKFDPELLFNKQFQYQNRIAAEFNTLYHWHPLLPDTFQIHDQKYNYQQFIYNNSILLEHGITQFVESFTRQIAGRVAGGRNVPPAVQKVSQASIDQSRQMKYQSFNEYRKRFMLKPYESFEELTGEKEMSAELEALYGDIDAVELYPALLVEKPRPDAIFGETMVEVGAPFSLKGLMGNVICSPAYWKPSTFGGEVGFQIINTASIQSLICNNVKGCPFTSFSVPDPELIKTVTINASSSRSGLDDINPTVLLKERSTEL
Method in brief: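 PGE2 formed from arachidonic acid (final 5 μM, 2 min) was measured by LC-MS-MS against DMSO controls. Enzyme (oCOX-1 0.1 μg or hCOX2 0.2 μg) with hematin/epinephrine cofactors at pH 8.0 was given 10 min at 37 °C with compound first. Twelve-point curves run three times gave IC50.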

[6] = readout pge2/pge2d4 area ratio, read-out: COX2 2 minutes pge2/pge2d4 area ratio Avg. IC50
[7] = readout pge2 area (counts), read-out: COX2 2 minutes pge2 area (counts) Avg. IC50

| Structure (SMILES) | fraction unbound [1] | fraction unbound [2] | solubility (PBS Solubility (no DMSO)) [µM] | Human Plasma Protein Stability % Remaining Avg [3] [%] | Human Microsome Stability % Remaining Avg [4] [%] | IC50 [5, 6] [nM] | IC50 [5, 7] [nM] | COX2 2 minutes pge2/pge2d4 area ratio Avg. LLE ([5]; readout pge2/pge2d4 area ratio, average LLE) | COX2 2 minutes pge2 area (counts) Avg. LLE ([5]; readout pge2 area (counts), average LLE) |
| --- | --- | --- | --- | --- | --- | --- | --- | --- | --- |
| CS(=O)(=O)c1ccc(-c2cccc(NCc3ccco3)n2)cc1 [Compound 36] | 0.087 | 0.091 | 27 (≈ 8.87 µg/mL) | 100 | 17 | 17.5 | 18.2 |  |  |
| CS(=O)(=O)c1ccc(-c2cccc(NCc3ccoc3)n2)cc1 [Compound 47, N-(furan-3-ylmethyl)-6-(4-(methylsulfonyl)phenyl)pyridin-2-amine] | 0.068 | 0.071 | 88 (≈ 28.9 µg/mL) | 102.5 | 16 | 21.2 | 15.5 | 4.86 | 4.974 |
